Assay results as given in patent publication US20110166105A1, “ANTIMICROBIAL WASH AND CARRIER SOLUTIONS AND USES THEREOF” (TEVA ANIMAL HEALTH, INC., priority 2002, published 2011).

Experiment: Antimicrobial preservative effectiveness (APE), USP 25 test 51
Assay type: cell-based
Details: pH 8.5
Procedure: Various concentrations of benzyl alcohol were tested for antimicrobial preservative effectiveness (APE) using the USP 25 test 51 (U.S. Pharmacopeia 25, U.S. Pharmacopeia, MD (2001)). The formulations below are based on the formulation designated as 940-16 C (with a slightly higher pH) in Example 2 above with varying benzyl alcohol concentrations. The table below summarizes the results of these studies. Antimicrobial activity can be measured by any standard assay known to those of skill in the art (e.g., USP 25 antimicrobial preservative effectiveness (APE) test 51 (U.S. Pharmacopeia 25, U.S. Pharmacopeia, MD (2001)).

## OCc1ccccc1 [benzyl alcohol]
  USP antimicrobial preservative requirement: meets the USP antimicrobial preservative requirement
